# Experimental data as given in US12091392B2, “Compounds, compositions and methods” (Denali Therapeutics Inc., priority 2019, dated 2024).
# Test system: ATF4 Nano Luciferase reporter (ATF4 translation / ISR pathway activation)
# Experiment: ATF4 Nano Luciferase reporter integrated stress response (ISR) assay in H4 ATF4-NLuc (clone 17) cells
# Type: cell-based
# Conditions: Homo sapiens, 0.5 h, compounds added for 30 minutes at 37° C., then 50 μm sodium arsenite for 6 additional hours, luminescence readout
# Text: Cellular stress leads to activation of the integrated stress response pathway through one of four eukaryotic initiation factor 2α kinases and halts global translation, while allowing for the translation of select transcripts like ATF4 (activating transcription factor 4) that are important for the response to cellular stress. During normal conditions, small open reading frames (ORFs) in the 5′ UTR of ATF4 occupy the ribosome and prevent translation of the coding sequence of ATF4. During stress conditions however, the ribosome scans past these upstream ORFs and preferentially begins translation at the coding sequence of ATF4. In this way, the translation, and thus protein level of ATF4 is a readout of ISR pathway activation. Thus, a fusion of the uORFs and the beginning of the coding sequence of ATF to a common cellular reporter like nano-luciferase allows for a sensitive and high-throughput readout of ISR pathway activity.
# Certain compounds provided herein were tested in the following assay. The ATF4 Nano Luciferase reporter was constructed by fusing the human full length 5′ untranslated region (5′-UTR) and a small portion of the coding sequence of the ATF4 gene upstream of the Nano Luciferase (NLuc) coding sequence lacking it's start codon. Specifically, nucleotides +1 through +364 (relative to the transcriptional start site) of ATF4 transcript variant 2 (NCBI NM_182810.2) flanked 5′ by EcoRI and 3′ by BamHI restriction enzyme sites were synthesized and cloned into the EcoRI/BamHI cloning sites of pLVX-EF1a-IRES-Puro lentivirus vector (Clontech). Lentiviral particles were produced with Lenti-X single shots (VSV-G, Clontech) according to the manufacturer's instructions and used to transduce a human H4 neuroglioma cell line (ATCC HTB-148). H4 cells were selected with 1.25 μg/mL Puromycin, and clonal cell lines generated by limiting dilution. This cell line was utilized to generate an integrated stress response (ISR) assay to evaluate the activity of ISR pathway inhibitors via luminescence readout. The H4 ATF4-NLuc (clone 17) cell line was plated at a density of 15,000 or 2,500 cells in 96-well or 384-well respectively in DMEM+10% fetal bovine serum. 24-hours later test compounds diluted in dimethyl sulfoxide (DMSO) were added for 30 minutes at 37° C., followed by ISR pathway activation with […] sodium arsenite aqueous solution for 6 additional hours. Nano Glo luciferase reagent (N1150, Promega) was added according to manufacturer instructions and the luminescence signal (corresponding to the level of ATF4 translation and thus ISR pathway activation) was read with a standard plate reader with luminescence detection capabilities. In Table 2, the activity of certain compounds disclosed herein as tested in the assay above is provided.
row,SMILES,IC50 [nM]
1,O=C(COc1ccc(C(F)(F)F)cc1)NC12CC(c3nnc(OCCOC(F)(F)F)o3)(C1)C2 [Example 2],4.9
2,O=C(COc1ccc(Cl)cc1)NC12CC(c3nnc(OCCOC(F)(F)F)o3)(C1)C2 [Example 1],62
3,CN(CCOC(F)(F)F)c1nnc(C23CC(NC(=O)COc4ccc(C(F)(F)F)cc4)(C2)C3)o1 [Example 5],54
4,O=C(COc1ccc(C(F)(F)F)cc1)NC12CC(c3nnc(NCCOC(F)(F)F)o3)(C1)C2 [Example 4],36
5,"O=C(COc1ccc(Br)cc1)NC12CC(c3nnc(OCCOC(F)(F)F)o3)(C1)C2 [Example 8, 2-(4-bromophenoxy)-N-(3-(5-(2-(trifluoromethoxy)ethoxy)-1,3,4-oxadiazol-2-yl)bicyclo[1.1.1]pentan-1-yl)acetamide]",23

# Further lines, results first:
row,IC50 [nM],SMILES
1,16,"O=C(COc1ccc(Br)cc1)NC12CC(c3nnc(OCCOCC(F)(F)F)o3)(C1)C2 [Example 7, 2-(4-bromophenoxy)-N-(3-(5-(2-(2,2,2-trifluoroethoxy)ethoxy)-1,3,4-oxadiazol-2-yl)bicyclo[1.1.1]pentan-1-yl)acetamide]"
2,21,"O=C(COc1ccc(C(F)(F)F)cc1)NC12CC(c3nnc(OCCOCC(F)(F)F)o3)(C1)C2 [Example 6, N-(3-(5-(2-(2,2,2-trifluoroethoxy)ethoxy)-1,3,4-oxadiazol-2-yl)bicyclo[1.1.1]pentan-1-yl)-2-(4-(trifluoromethyl)phenoxy)acetamide]"
3,6.1,"O=C(COc1ccc(C(F)(F)F)c(F)c1)NC12CC(c3nnc(OCCOCC(F)(F)F)o3)(C1)C2 [Example 9, 2-(3-fluoro-4-(trifluoromethyl)phenoxy)-N-(3-(5-(2-(2,2,2-trifluoroethoxy)ethoxy)-1,3,4-oxadiazol-2-yl)bicyclo[1.1.1]pentan-1-yl)acetamide]"
4,16,O=C(COc1ccc(Cl)cc1)NC12CC(c3nnc(OCCOCC(F)(F)F)o3)(C1)C2 [Example 3]
